Assay: Solubility test of BM-DBM
Assay type: physicochemical
Settings: 1 g BM-DBM mixed with 2 g additive, dissolved at 140° C., cooled to room temperature for 30 min
Description: 1 g of BM-DBM was mixed with 2 g of an additive, dissolved at 140° C., then the mixture was cooled to room temperature for 30 min and its state was observed.

- Solubility of BM-DBM: ◯
- solubility of BM-DBM (in words): particularly good solubility of BM-DBM
Structure (SMILES): CCCCCCCCCCCC(=O)OCCCCCC [Hexyl laurate]
